In US8987200B2, “Polycationic calcium modulator peptides for the treatment of hyperparathyroidism and hypercalcemic disorders” (KAI Pharmaceuticals, Inc., priority 2006, dated 2015):
No end group written: not given here.

Key:
[1] = In vitro activity of free-thiol calcium modulating peptide compared with KAI-1455; details: tested in vitro, relative to KAI-1455
[2] = rat, plasma
anesthetized rats = test: 3 hour infusion study of KAI-1633 in anesthetized rats, with steady state plasma concentration by ELISA (Example 14); assay type: in vivo, rat; details: 9 mg/kg iv infusion for 3 hours
Text: The study was designed to determine the contribution of the disulfide bond and/or cysteine residue on the calcium modulator peptide to the reductions in total calcium and plasma PTH.
Control animals (n=4) were infused with saline.

Question: For “Ac-CYGRKKRRQRRR-NH2 [SEQ ID NO:5, capped TAT-derived peptide having an N-terminal cysteine residue containing a free thiol]”, which Activity in vitro [1] is on record?
Answer: Its Activity in vitro is “comparable to KAI-1455”.

Question: For CC(C)C[C@H](NC(=O)[C@H](CO)NC(=O)CNC(=O)[C@H](CC(C)C)NC(=O)[C@H](CCC(=O)O)NC(=O)[C@H](Cc1ccc(O)cc1)NC(=O)[C@H](CO)NC(=O)[C@H](CC(N)=O)NC(=O)[C@H](Cc1ccccc1)NC(=O)[C@H](CO)NC(=O)[C@@H](N)CSSC[C@H](N)C(=O)N[C@@H](Cc1ccc(O)cc1)C(=O)NCC(=O)N[C@@H](CCCNC(=N)N)C(=O)N[C@@H](CCCCN)C(=O)N[C@@H](CCCCN)C(=O)N[C@@H](CCCNC(=N)N)C(=O)N[C@@H](CCCNC(=N)N)C(=O)N[C@@H](CCC(N)=O)C(=O)N[C@@H](CCCNC(=N)N)C(=O)N[C@@H](CCCNC(=N)N)C(=O)N[C@@H](CCCNC(=N)N)C(=O)O)C(=O)O [KP-9803], which half-life [2] is on record?
Answer: Its half-life is roughly 10 min.

Question: With CC[C@H](C)[C@H](NC(=O)[C@@H]1CCCN1C(=O)[C@H](C)NC(=O)[C@H](CC(=O)O)NC(=O)[C@H](Cc1c[nH]cn1)NC(=O)[C@@H](N)CSSC[C@H](N)C(=O)N[C@@H](Cc1ccc(O)cc1)C(=O)NCC(=O)N[C@@H](CCCNC(=N)N)C(=O)N[C@@H](CCCCN)C(=O)N[C@@H](CCCCN)C(=O)N[C@@H](CCCNC(=N)N)C(=O)N[C@@H](CCCNC(=N)N)C(=O)N[C@@H](CCC(N)=O)C(=O)N[C@@H](CCCNC(=N)N)C(=O)N[C@@H](CCCNC(=N)N)C(=O)N[C@@H](CCCNC(=N)N)C(=O)O)C(=O)NCC(=O)N[C@@H](Cc1ccc(O)cc1)C(=O)N[C@@H](CC(=O)O)C(=O)O [KP-9706] as the compound, how does the half-life [2] read?
Answer: The half-life was roughly 5 min.

Question: Which “Plasma PTH levels” value (anesthetized rats) does the source give for EAVSLKPTGGYGRKKRRQRRR-NH2 [KAI-1633] here?
Answer: The value was “did not show a reduction”.

Question: What about the Total calcium (anesthetized rats) of the same compound?
Answer: The Total calcium was “did not show a reduction”.
